From US20250236622A1, “BICYCLIC COMPOUNDS AS INHIBITORS OF WRN” (Incyte Corporation, priority 2023, published 2025)

Key:
WRN [1] = biological target: T1, WRN (Homo sapiens, UniProt Q14191); experiment: WRN Helicase Activity Assay (fluorescence DNA unwinding); assay type: biochemical; settings: 1-hr pre-incubation with enzyme; 100 μM ATP, 25 nM forked dsDNA, 1 nM WRN; geometric mean of at least 2 replicates
T1 construct: A His-tagged construct of WRN (AA S2-S1235) was produced and used for the ATPase assay; made in house; host or cells: Sf9 insect cells (baculovirus, pFastBac1)
Protocol: Compounds of the examples were tested for WRN helicase activity. DNA encoding the target protein, 6×HIS-TEV-WRN-517-945, was produced, cloned and transfected as detailed in Example D. To determine the inhibitory properties of the compounds, a 384 wells plate-based Helicase assay was set up to measure the extent of DNA unwinding (Helicase) activity of WRN. The WRN Helicase assay was designed to measure increase in fluorescence signal using a fluorescence based, donor-quencher paired forked dsDNA oligomer substrate (custom synthesis from Sigma-Aldrich) prepared by annealing equal amounts of oligo GPat-1 ([BHQ2][…]) and oligo GPat-2 ([…][TAM]). Continuous measurement of fluorescent signal was used to optimize the buffer conditions, concentration of enzyme (WRN), concentration of substrates (ATP & dsDNA), and the linearity of the Helicase reaction. All solutions were prepared in the following assay buffer: 50 mM Tris-HCl, pH-7.5, 2 mM MgCl2, 50 mM NaCl, 1 mM EGTA, 0.01% P-20, 0.05% BSA, and 2 mM DTT prepared with nuclease free water.
A serial dilution (1:3 scheme) of the compounds was prepared in neat DMSO and 100 nL of the compounds was dispensed in the Greiner black low volume (Greiner #784076) 384 wells assay plate. An 1-hr pre-incubation of the compounds with enzyme was included. A His-tagged construct of WRN (AA S2-S1235) was produced and used for the ATPase assay. Maximum inhibition control wells were set up with the addition of only assay buffer, and no inhibition control wells were set up with neat DMSO without test compounds. The reaction was initiated by addition of 5 μL substrate mix (200 μM ultrapure ATP, and 50 nM dsDNA prepared in assay buffer) and incubated at 25° C. for 35 min. A typical Helicase reaction consists of 25 nM forked dsDNA, 100 μM ATP, and 1 nM WRN prepared in assay buffer. The WRN Helicase reaction was quenched by the addition of 5 μL ‘STOP’ solution containing 100 mM EDTA (final EDTA concentration 33.33 mM) prepared in assay buffer. The plates were read on BMG PHERAstar FSX using 540/590 module to measure an increase of fluorescence. Data analysis was carried out using the Genedata software following % of control normalization. Fitting parameters include dose response IC50, Hill slope (n), maximum inhibition (S∞), and minimum inhibition (S0). The reported IC50 values for compounds in this invention are the geometric means of at least 2 independent replicates.

WRN [2] = biological target: T1, WRN; experiment: WRN ATPase Activity Assay (ADP-Glo); assay type: biochemical; settings: 1-hr pre-incubation with enzyme; 100 μM ATP, 25 nM forked dsDNA, 1 nM WRN; geometric mean of at least 2 replicates
Protocol: Compounds of the Examples were tested for WRN ATPase activity. WRN ATPase activity catalyzes ATP hydrolysis to produce ADP and phosphate. DNA encoding the target protein, 6×HIS-TEV-WRN-517-945, was produced, cloned and transfected as detailed in Example D. The amount of ADP produced was measured using ADP-Glo™ Kinase Assay kit from Promega Corporation in a Greiner white regular volume 384 wells assay plate (Greiner #781075). Data was normalized to a standard curve generated using various ADP concentrations and the corresponding luminescent signal intensities at each concentration.
The assay conditions were optimized for enzyme concentration (WRN), substrate concentrations (ATP & dsDNA), and the linearity of the ATPase reaction, in the following assay buffer: 50 mM Tris-HCl, pH-7.5, 2 mM MgCl2, 50 mM NaCl, 1 mM EGTA, 0.01% P-20, 0.05% BSA, and 2 mM DTT prepared with nuclease free water.
A serial dilution (1:3 scheme) of the compounds were prepared in neat DMSO, with 100 nL of the compounds dispensed in the 384 wells assay plate. An 1-hr pre-incubation of the compounds with enzyme was included. A His-tagged construct of WRN (AA S2-S1235) was produced and used for the ATPase assay. Maximum inhibition control wells were set up with the addition of only assay buffer, and no inhibition control wells were set up with neat DMSO without test compounds. The reaction was initiated by addition of 5 μL substrate mix (200 μM ultrapure ATP, and 50 nM dsDNA prepared in assay buffer) and incubated at 25° C. for 35 min. A forked dsDNA oligomer substrate was prepared by annealing equal amounts of oligo GPat-1 ([BHQ2][…]) and oligo GPat-2 ([…][TAM]) and was used as dsDNA substrate for WRN ATPase assay. A typical ATPase reaction consists of 25 nM forked dsDNA, 100 μM ATP, and 1 nM WRN prepared in assay buffer. The WRN ATPase reaction was stopped by the addition of 5 μL of ADP-Glo Reagent from ADP-Glo™ Kinase Assay kit and incubated for 40 min to deplete the unreacted ATP. Afterwards, 5 μL of Kinase Detection Reagent from the ADP-Glo™ Kinase Assay kit was added and incubated for 1 hr for the development of luminescence signal.
Luminesce signals were measured on BMG PHERAstar FSX using luminescence protocol. Data analysis was carried out using Genedata software following % of control normalization. Fitting parameters include dose response IC50, Hill slope (n), maximum inhibition (S∞), and minimum inhibition (S0). The reported IC50 values for compounds in this invention are the geometric means of at least 2 independent replicates.

T1 sequence (Q14191 2-1235): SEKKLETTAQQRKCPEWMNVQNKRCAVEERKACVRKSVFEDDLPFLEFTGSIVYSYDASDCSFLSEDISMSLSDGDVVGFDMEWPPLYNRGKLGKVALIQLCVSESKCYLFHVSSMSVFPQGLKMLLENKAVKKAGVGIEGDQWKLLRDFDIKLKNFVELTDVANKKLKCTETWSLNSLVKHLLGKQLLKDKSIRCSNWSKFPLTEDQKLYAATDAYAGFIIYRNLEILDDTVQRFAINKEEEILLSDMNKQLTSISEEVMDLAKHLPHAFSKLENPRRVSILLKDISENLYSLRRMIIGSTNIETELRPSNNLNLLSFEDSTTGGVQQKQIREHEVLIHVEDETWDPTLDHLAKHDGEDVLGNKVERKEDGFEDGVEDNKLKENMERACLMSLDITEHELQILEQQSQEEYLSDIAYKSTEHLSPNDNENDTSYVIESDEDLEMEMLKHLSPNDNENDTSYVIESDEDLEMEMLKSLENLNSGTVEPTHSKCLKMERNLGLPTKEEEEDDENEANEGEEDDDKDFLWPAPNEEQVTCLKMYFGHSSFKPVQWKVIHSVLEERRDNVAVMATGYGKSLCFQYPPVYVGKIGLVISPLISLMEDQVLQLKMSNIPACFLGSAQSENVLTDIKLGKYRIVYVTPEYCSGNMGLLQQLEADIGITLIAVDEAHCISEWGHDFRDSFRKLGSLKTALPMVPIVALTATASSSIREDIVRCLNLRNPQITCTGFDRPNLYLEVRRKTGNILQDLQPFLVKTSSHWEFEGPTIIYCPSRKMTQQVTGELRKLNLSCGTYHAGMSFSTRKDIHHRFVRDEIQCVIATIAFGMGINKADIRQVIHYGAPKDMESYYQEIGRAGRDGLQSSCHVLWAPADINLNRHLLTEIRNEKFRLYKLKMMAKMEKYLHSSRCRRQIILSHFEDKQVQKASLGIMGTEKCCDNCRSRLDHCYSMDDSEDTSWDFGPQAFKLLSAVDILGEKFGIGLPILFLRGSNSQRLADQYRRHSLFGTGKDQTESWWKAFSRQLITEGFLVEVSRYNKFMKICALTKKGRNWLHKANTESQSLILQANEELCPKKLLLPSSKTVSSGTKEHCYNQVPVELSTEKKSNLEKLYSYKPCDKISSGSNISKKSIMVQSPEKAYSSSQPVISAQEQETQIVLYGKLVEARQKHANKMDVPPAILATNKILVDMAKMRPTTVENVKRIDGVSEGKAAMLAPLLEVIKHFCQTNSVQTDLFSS

Compound	IC50 (WRN [1]) [nM]	IC50 (WRN [2]) [nM]
C=CC(=O)Nc1ccccc1-c1c(CC)nc2n(CC(=O)Nc3ccc(C(F)(F)F)cc3)c(C)nn2c1=O [Example 1, N-(2-(5-Ethyl-2-methyl-7-oxo-3-(2-oxo-2-((4-(trifluoromethyl)phenyl)amino)ethyl)-3,7-dihydro-[1,2,4]triazolo[1,5-a]pyrimidin-6-yl)phenyl)acrylamide]	< 100	< 100
C=CC(=O)Nc1ccccc1-c1c(CC)nc2n(CC(=O)Nc3ccc(C(F)(F)F)cc3)c(C3CCNCC3)nn2c1=O [Example 6, N-(2-(5-Ethyl-7-oxo-3-(2-oxo-2-((4-(trifluoromethyl)phenyl)amino)ethyl)-2-(piperidin-4-yl)-3,7-dihydro-[1,2,4]triazolo[1,5-a]pyrimidin-6-yl)phenyl)acrylamide]	1000 to 5000	1000 to 5000
C=CC(=O)Nc1ccccc1-c1c(CC)nc2n(CC(=O)Nc3ccc(C(F)(F)F)cc3)c(-c3cccs3)nn2c1=O [Example 5, N-(2-(5-ethyl-7-oxo-3-(2-oxo-2-((4-(trifluoromethyl)phenyl)amino)ethyl)-2-(thiophen-2-yl)-3,7-dihydro-[1,2,4]triazolo[1,5-a]pyrimidin-6-yl)phenyl)acrylamide]	100 to 500	100 to 500

Results, then the compound that gave them:

IC50 (WRN [1]) [nM]	IC50 (WRN [2]) [nM]	Compound
5000 to 20000	1000 to 5000	C=CC(=O)Nc1ccccc1-c1c(CC)nc2n(CC(=O)Nc3ccc(C(F)(F)F)cc3)c(C3CCCCC3)nn2c1=O [Example 4, N-(2-(2-Cyclohexyl-5-ethyl-7-oxo-3-(2-oxo-2-((4-(trifluoromethyl)phenyl)amino)ethyl)-3,7-dihydro-[1,2,4]triazolo[1,5-a]pyrimidin-6-yl)phenyl)acrylamide]
100 to 500	100 to 500	C=CC(=O)Nc1ccccc1-c1c(CC)nc2n(CC(=O)Nc3ccc(C(F)(F)F)cc3)c(C3CCC3)nn2c1=O [Example 3, N-(2-(2-Cyclobutyl-5-ethyl-7-oxo-3-(2-oxo-2-((4-(trifluoromethyl)phenyl)amino)ethyl)-3,7-dihydro-[1,2,4]triazolo[1,5-a]pyrimidin-6-yl)phenyl)acrylamide]
< 100	< 100	C=CC(=O)Nc1ccccc1-c1c(CC)nc2n(CC(=O)Nc3ccc(C(F)(F)F)cc3)c(C3CC3)nn2c1=O [Example 2, N-(2-(2-Cyclopropyl-5-ethyl-7-oxo-3-(2-oxo-2-((4-(trifluoromethyl)phenyl)amino)ethyl)-3,7-dihydro-[1,2,4]triazolo[1,5-a]pyrimidin-6-yl)phenyl)acrylamide]
